Measured values as given in patent US20200316090A1, “TARGETED THERAPEUTICS” (MADRIGAL PHARMACEUTICALS, INC., priority 2012, published 2020).
Like-named read-outs stand apart in the source and are kept apart here. Blank lines part the entries; values can stand above or below the compound they belong to.

Assays:
[1] = Artificial membrane permeability assay (PAMPA)
[2] = Tissue distribution of SDC-TRAP and degradation products in tumor-bearing mice (plasma, tumor, heart); format: in vivo, Female SCID Mouse (H1975)
[3] = Mouse plasma stability (Examples 16-18); format: in vitro ADME; settings: for Mouse (5 μM) % Remaining 1 h (37° C.) §: data from single parent peak; for Mouse (5 μM) % Remaining 1 h (37° C.) * / Mouse (10 μM) % Remaining 1 h (37° C.) *: sum of both peaks of parent chromatogram
[4] = PAMPA
[5] = Permeability (10^−6 cm/s), 5 h incubation, peak area used in place of concentration, first table
[6] = Permeability (cm/s), 5 h incubation, peak area used in place of concentration, first table

Mass Retention (%) ([1]; 5 h incubation, first table): 26.0%
Papp at 5 h [1, 5]: 0.062 ×10⁻⁶ cm/s
Papp at 5 h [1, 6]: 0.062 ×10⁻⁶ cm/s
Kp at 1 h ([2]; female, SCID, mouse, in vivo): 11.9
Kp at […] ([2]; female, SCID, mouse, in vivo): 0.449
SMILES: Nc1cccc2c1CN(C1CCC(=O)NC1=O)C2=O (stereo not shown) [Lenalidomide, lenalidomide, reference compound]

SMILES: CCc1c2c(nc3ccc(OC(=O)N(C)CCOCCn4ccc5cc(-n6c(O)nnc6-c6cc(C(C)C)c(O)cc6O)ccc54)cc13)-c1cc3c(c(=O)n1C2)COC(=O)C3(O)CC (stereo not shown) [SDC-TRAP-0029, 4,11-diethyl-4-hydroxy-3,14-dioxo-3,4,12,14-tetrahydro-1H-pyrano[3′,4′:6,7]indolizino[1,2-b]quinolin-9-yl(2-(2-(5-(3-(2,4-dihydroxy-5-isopropylphenyl)-5-hydroxy-4H-1,2,4-triazol-4-yl)-1H-indol-1-yl)ethoxy)ethyl)(methyl)carbamate]
Papp at 5 h [1]: 0.00646 ×10⁻⁶ cm/s
Mass Retention (%) ([1]; same protocol, second table): 84.0%
Permeability (10^−6 cm/s) ([1]; same protocol, second table): 0.00646 10^−6 cm/s
Mouse (5 μM) % Remaining 1 h (37° C.) § ([3]; 1 h): 43%
Mouse (5 μM) % Remaining 1 h (37° C.) * ([3]; 1 h): 46%
Mouse (5 μM) % Remaining 19 h (37° C.) [3]: 29%
Mouse (10 μM) % Remaining 1 h (37° C.) * ([3]; 1 h): 47%

SMILES: CCc1c2c(nc3ccc(O)cc13)-c1cc3c(c(=O)n1C2)COC(=O)C3(CC)OC(=O)N(C)CCOCCn1ccc2cc(-n3c(O)nnc3-c3cc(C(C)C)c(O)cc3O)ccc21 (stereo not shown) [SDC-TRAP-0037, 4,11-diethyl-9-hydroxy-3,14-dioxo-3,4,12,14-tetrahydro-1H-pyrano[3′,4′:6,7]indolizino[1,2-b]quinolin-4-yl (2-(2-(5-(3-(2,4-dihydroxy-5-isopropylphenyl)-5-hydroxy-4H-1,2,4-triazol-4-yl)-1H-indol-1-yl)ethoxy)ethyl) (methyl)carbamate]
Mouse (5 μM) % Remaining 1 h (37° C.) * ([3]; 1 h): 67%
Mouse (5 μM) % Remaining 19 h (37° C.) [3]: 6%
Mouse (10 μM) % Remaining 1 h (37° C.) * ([3]; 1 h): 95%

SMILES: CCc1c2c(nc3ccc(OC(=O)N(C)CCCCN4CCN(Cc5ccc(-n6c(O)nnc6-c6cc(C(C)C)c(O)cc6O)cc5)CC4)cc13)-c1cc3c(c(=O)n1C2)COC(=O)C3(O)CC (stereo not shown) [SDC-TRAP-0044, 4,11-diethyl-4-hydroxy-3,14-dioxo-3,4,12,14-tetrahydro-1H-pyrano[3 ‘,4’:6,7]indolizino[1,2-b]quinolin-9-yl (4-(4-(4-(3-(2,4-dihydroxy-5-isopropylphenyl)-5-hydroxy-4H-1,2,4-triazol-4-yl)benzyl)piperazin-1-yl)butyl)(methyl)carbamate]
Mouse (5 μM) % Remaining 1 h (37° C.) * ([3]; 1 h): 50%
Mouse (5 μM) % Remaining 19 h (37° C.) [3]: 41%
Mouse (10 μM) % Remaining 1 h (37° C.) * ([3]; 1 h): 61%

SMILES: CCc1c2c(nc3ccc(OC(=O)N4CCN(c5ccc(-n6c(O)nnc6-c6cc(C(C)C)c(O)cc6O)cc5)CC4)cc13)-c1cc3c(c(=O)n1C2)COC(=O)C3(O)CC (stereo not shown) [SDC-TRAP-0045, 4,11-diethyl-4-hydroxy-3,14-dioxo-3,4,12,14-tetrahydro-1H-pyrano[3′,4′:6,7]indolizino[1,2-b]quinolin-9-yl 4-(4-(3-(2,4-dihydroxy-5-isopropylphenyl)-5-hydroxy-4H-1,2,4-triazol-4-yl)phenyl)piperazine-1-carboxylate]
Mouse (5 μM) % Remaining 1 h (37° C.) § ([3]; 1 h): 72%
Mouse (5 μM) % Remaining 1 h (37° C.) * ([3]; 1 h): 77%
Mouse (5 μM) % Remaining 19 h (37° C.) [3]: 50%
Mouse (10 μM) % Remaining 1 h (37° C.) * ([3]; 1 h): 45%

SMILES: CCc1c2c(nc3ccc(OC(=O)N4CCN(Cc5ccc(-n6c(O)nnc6-c6cc(C(C)C)c(O)cc6O)cc5)CC4)cc13)-c1cc3c(c(=O)n1C2)COC(=O)C3(O)CC (stereo not shown) [SDC-TRAP-0046, 4,11-diethyl-4-hydroxy-3,14-dioxo-3,4,12,14-tetrahydro-1H-pyrano[3′,4′:6,7]indolizino[1,2-b]quinolin-9-yl 4-(4-(3-(2,4-dihydroxy-5-isopropylphenyl)-5-hydroxy-4H-1,2,4-triazol-4-yl)benzyl)piperazine-1-carboxylate]
Papp at 5 h [1]: 0.0122 ×10⁻⁶ cm/s
Mass Retention (%) ([1]; same protocol, second table): 88.1%
Permeability (10^−6 cm/s) ([1]; same protocol, second table): 0.0122 10^−6 cm/s
Mouse (5 μM) % Remaining 1 h (37° C.) § ([3]; 1 h): 62%
Mouse (5 μM) % Remaining 1 h (37° C.) * ([3]; 1 h): 65%
Mouse (5 μM) % Remaining 19 h (37° C.) [3]: 37%
Mouse (10 μM) % Remaining 1 h (37° C.) * ([3]; 1 h): 57%
concentration at 12 h ([2]; female, SCID, mouse, in vivo, tissue distribution of SDC-TRAP-0046, 12 h, read-out: Plasma Conc.): 54.2 nM
Kp at 12 h ([2]; female, SCID, mouse, in vivo, tissue distribution of SDC-TRAP-0046, 12 h, read-out: Tumor/Plasma Ratio): 40.3

% Remaining (l h) ([3]; mouse, plasma, 1 h, 10 µM): 96.5%
SMILES: CC(C)c1cc(-c2nnc(O)n2-c2ccc(CN3CCN(C(=O)c4ccc(CCc5c[nH]c6nc(N)[nH]c(=O)c56)cc4)CC3)cc2)c(O)cc1O [SDC-TRAP-0068, 2-amino-5-(4-(4-(4-(3-(2,4-dihydroxy-5-isopropylphenyl)-5-hydroxy-4H-1,2,4-triazol-4-yl)benzyl)piperazine-1-carbonyl)phenethyl)-3H-pyrrolo[2,3-d]pyrimidin-4(7H)-one]

SMILES: CCNC(=O)c1nnc(-c2cc(C(C)C)c(O)cc2O)n1-c1ccc(Oc2ccc(C(=O)N3CCC(C(=O)OC4(CC)C(=O)OCc5c4cc4n(c5=O)Cc5c-4nc4ccc(O)cc4c5CC)CC3)cc2)cc1 (stereo not shown) [SDC-TRAP-0154, 4,11-Diethyl-9-hydroxy-3,14-dioxo-3,4,12,14-tetrahydro-1H-pyrano[3′,4′:6,7]indolizino[1,2-b]quinolin-4-yl 1-(4-(4-(3-(2,4-dihydroxy-5-isopropylphenyl)-5-(ethylcarbamoyl)-4H-1,2,4-triazol-4-yl)phenoxy)benzoyl)piperidine-4-carboxylate]
Mass Retention (%) ([1]; same protocol, second table): 10.3%
Kp ([2]; female, SCID, mouse, in vivo, tissue distribution of SDC-TRAP-0154, 6 h, read-out: Tumor/Plasma Ratio): 0.44
Kp ([2]; female, SCID, mouse, in vivo, tissue distribution of SDC-TRAP-0154, 24 h, read-out: Tumor/Plasma Ratio): 2.68
Kp ([2]; female, SCID, mouse, in vivo, tissue distribution of SDC-TRAP-0154, 48 h, read-out: Tumor/Plasma Ratio): 26.8
Plasma Conc. ([2]; tissue distribution of SDC-TRAP-0154, 1 h): 215000 nM
Tumor Conc. ([2]; tissue distribution of SDC-TRAP-0154, 24 h): 0.115 nmol/g of tissue
Tumor Conc. ([2]; tissue distribution of SDC-TRAP-0154, 48 h): 0.0921 nmol/g of tissue

SMILES: CCNC(=O)c1nnc(-c2cc(C(C)C)c(O)cc2O)n1-c1ccc(OC2CCN(c3cnc(C(=O)N[C@H]4C[C@H](O[C@H]5C[C@](O)(C(=O)CO)Cc6c(O)c7c(c(O)c65)C(=O)c5c(OC)cccc5C7=O)O[C@@H](C)[C@H]4O)cn3)CC2)cc1 [SDC-TRAP-0200, 5-(4-(4-(3-(2,4-dihydroxy-5-isopropylphenyl)-5-(ethylcarbamoyl)-4H-1,2,4-triazol-4-yl)phenoxy)piperidin-1-yl)-N-((2S,3S,4S,6R)-3-hydroxy-2-methyl-6-(((1S,3S)-3,5,12-trihydroxy-3-(2-hydroxyacetyl)-10-methoxy-6,11-dioxo-1,2,3,4,6,11-hexahydrotetracen-1-yl)oxy)tetrahydro-2H-pyran-4-yl)pyrazine-2-carboxamide]
Mass Retention (%) ([1]; same protocol, second table): 10.6%

SMILES: CCNC(=O)c1nnc(-c2cc(C(C)C)c(O)cc2O)n1-c1ccc2c(ccn2CCC2CCN(C(=O)Oc3ccc4nc5c(c(CC)c4c3)Cn3c-5cc4c(c3=O)COC(=O)[C@]4(O)CC)CC2)c1 [SDC-TRAP-0205, (S)-4,11-diethyl-4-hydroxy-3,14-dioxo-3,4,12,14-tetrahydro-1H-pyrano[3′,4′:6,7]indolizino[1,2-b]quinolin-9-yl 4-(2-(5-(3-(2,4-dihydroxy-5-isopropylphenyl)-5-(ethylcarbamoyl)-4H-1,2,4-triazol-4-yl)-1H-indol-1-yl)ethyl)piperidine-1-carboxylate]
Mass Retention (%) ([1]; same protocol, second table): 10.9%

SMILES: CCNC(=O)c1nnc(-c2cc(C(C)C)c(O)cc2O)n1-c1ccc2c(ccn2CCC2CCN(C(=O)O[C@]3(CC)C(=O)OCc4c3cc3n(c4=O)Cc4c-3nc3ccc(O)cc3c4CC)CC2)c1 [SDC-TRAP-0208, (S)-4,11-diethyl-9-hydroxy-3,14-dioxo-3,4,12,14-tetrahydro-1H-pyrano[3′,4′:6,7]indolizino[1,2-b]quinolin-4-yl 4-(2-(5-(3-(2,4-dihydroxy-5-isopropylphenyl)-5-(ethylcarbamoyl)-4H-1,2,4-triazol-4-yl)-1H-indol-1-yl)ethyl)piperidine-1-carboxylate]
Mass Retention (%) ([1]; same protocol, second table): 25.0%

SMILES: CCc1c2c(nc3ccc(OC(=O)N4CCC[C@H]4C(=O)N4CCC(CCn5ccc6cc(-n7c(O)nnc7-c7cc(C(C)C)c(O)cc7O)ccc65)CC4)cc13)-c1cc3c(c(=O)n1C2)COC(=O)[C@]3(O)CC [SDC-TRAP-0210]
Papp at 5 h [1]: 0.00899 ×10⁻⁶ cm/s
Mass Retention (%) ([1]; 5 h incubation, first table): 34.8%
Mass Retention (%) ([1]; same protocol, second table): 72.2%
Permeability (10^−6 cm/s) ([1]; same protocol, second table): 0.00899 10^−6 cm/s

Mass Retention (%) ([1]; 5 h incubation, first table): 21.0%
Papp at 5 h [1, 5]: 0.00689 ×10⁻⁶ cm/s
Papp at 5 h [1, 6]: 0.00689 ×10⁻⁶ cm/s
SMILES: CC(C)c1cc(-c2nnc(C(=O)NCCCCCS(N)(=O)=O)n2-c2ccc(CN3CCOCC3)cc2)c(O)cc1O [SDC-TRAP-0232, 5-(2,4-dihydroxy-5-isopropylphenyl)-4-(4-(morpholinomethyl)phenyl)-N-(5-sulfamoylpentyl)-4H-1,2,4-triazole-3-carboxamide]

SMILES: CC(C)c1cc(-c2nnc(O)n2-c2ccc3c(ccn3CCNC(=O)CCCC[C@@H]3SC[C@@H]4NC(=O)N[C@@H]43)c2)c(O)cc1O [SDC-TRAP-0233]
Mass Retention (%) [4]: 10.9%
Permeability [4]: 0.021 ×10⁻⁶ cm/s
Permeability (10^−6 cm/s) [4]: 0.021 10^−6 cm/s

SMILES: CC(C)c1cc(-c2nnc(O)n2-c2ccc3c(ccn3CCNC(=O)CCCCCNC(=O)CCCC[C@H]3SC[C@H]4NC(=O)N[C@H]43)c2)c(O)cc1O [SDC-TRAP-0234]
Mass Retention (%) [4]: 9.56%
Permeability [4]: 0.0123 ×10⁻⁶ cm/s
Permeability (10^−6 cm/s) [4]: 0.0123 10^−6 cm/s
